Experimental data reported in ChEMBL document CHEMBL1201862, “PubChem BioAssay data set” (2004).
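All cell lines were grown in 96-well plates and treated with compound for 48 hours. Here, GI50 denotes the concentration required for 50% inhibition of growth.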 Calls of active or inactive are those of the source. Rule as the data show it: active = GI50 up to about 1.1 µM and inactive = higher.

Legend:
Experiment in all cases: NCI-60 cell line screen, 48 h
786-0 = test system: 786-0
HCC 2998 = test system: HCC 2998
Hs-578T = test system: Hs-578T
IGROV-1 = test system: IGROV-1
K562 = test system: K562
LOX IMVI = test system: LOX IMVI
MDA-MB-231 = test system: MDA-MB-231
MDA-MB-435 = test system: MDA-MB-435
MOLT-4 = test system: MOLT-4
NCI-H226 = test system: NCI-H226
NCI-H23 = test system: NCI-H23
NCI-H460 = test system: NCI-H460
RXF 393 = test system: RXF 393
SK-MEL-2 = test system: SK-MEL-2
SR = test system: SR
SW-620 = test system: SW-620
UACC-62 = test system: UACC-62
HT-29 = test system: HT-29

SMILES: Nc1ncnc2c1ncn2[C@@H]1C[C@H](NO)[C@@H](O)[C@H]1O
- GI50 (786-0): > 100 µM (inactive)
- GI50 (HCC 2998): > 100 µM (inactive)
- GI50 (Hs-578T): > 100 µM (inactive)
- GI50 (IGROV-1): > 100 µM (inactive)
- GI50 (K562): 28.1 µM (inactive)
- GI50 (LOX IMVI): 13.1 µM (inactive)
- GI50 (MDA-MB-231): > 100 µM (inactive)
- GI50 (MDA-MB-435): > 100 µM (inactive)
- GI50 (MOLT-4): 83.4 µM (inactive)
- GI50 (NCI-H226): > 100 µM (inactive)
- GI50 (NCI-H23): > 100 µM (inactive)
- GI50 (NCI-H460): > 100 µM (inactive)
- GI50 (RXF 393): > 100 µM (inactive)
- GI50 (SK-MEL-2): > 100 µM (inactive)
- GI50 (SR): 3.55 µM (inactive)
- GI50 (SW-620): 26.9 µM (inactive)
- GI50 (UACC-62): > 100 µM (inactive)

SMILES: COP(=O)(OC)[C@@](O)(c1ccccc1)[C@@H](O)[C@H](O)c1ccccc1
- GI50 (786-0): 98.6 µM (inactive)
- GI50 (HT-29): > 100 µM (inactive)
- GI50 (Hs-578T): > 100 µM (inactive)
- GI50 (IGROV-1): > 100 µM (inactive)
- GI50 (K562): 60.1 µM (inactive)
- GI50 (LOX IMVI): 21.1 µM (inactive)
- GI50 (MDA-MB-231): > 100 µM (inactive)
- GI50 (MDA-MB-435): > 100 µM (inactive)
- GI50 (MOLT-4): > 100 µM (inactive)
- GI50 (NCI-H226): > 100 µM (inactive)
- GI50 (NCI-H23): > 100 µM (inactive)
- GI50 (NCI-H460): > 100 µM (inactive)
- GI50 (RXF 393): > 100 µM (inactive)
- GI50 (SK-MEL-2): > 100 µM (inactive)
- GI50 (SR): > 100 µM (inactive)
- GI50 (SW-620): 42.2 µM (inactive)
- GI50 (UACC-62): > 100 µM (inactive)

SMILES: CCN1C(=O)c2ccccc2C1(O)c1ccc(Cl)cc1 (stereo unspecified)
- GI50 (786-0): 76.9 µM (inactive)
- GI50 (HCC 2998): > 100 µM (inactive)
- GI50 (HT-29): 41.9 µM (inactive)
- GI50 (Hs-578T): > 100 µM (inactive)
- GI50 (IGROV-1): 29.1 µM (inactive)
- GI50 (K562): > 100 µM (inactive)
- GI50 (LOX IMVI): 51.4 µM (inactive)
- GI50 (MDA-MB-231): > 100 µM (inactive)
- GI50 (MDA-MB-435): 83.2 µM (inactive)
- GI50 (MOLT-4): 47.3 µM (inactive)
- GI50 (NCI-H226): 16.8 µM (inactive)
- GI50 (NCI-H23): 38.2 µM (inactive)
- GI50 (NCI-H460): 89.7 µM (inactive)
- GI50 (SK-MEL-2): 18.7 µM (inactive)
- GI50 (SR): 41.2 µM (inactive)
- GI50 (SW-620): > 100 µM (inactive)
- GI50 (UACC-62): 79.1 µM (inactive)

SMILES: C[C@]1(O)O[C@@H]2OCC[C@@H]2C2=C1C(=O)c1ccccc1C2=O
- GI50 (786-0): 14.4 µM (inactive)
- GI50 (HCC 2998): 17.3 µM (inactive)
- GI50 (HT-29): 29.9 µM (inactive)
- GI50 (Hs-578T): 30.3 µM (inactive)
- GI50 (IGROV-1): 14.2 µM (inactive)
- GI50 (K562): 15.7 µM (inactive)
- GI50 (LOX IMVI): 11.4 µM (inactive)
- GI50 (MDA-MB-231): 21.2 µM (inactive)
- GI50 (MDA-MB-435): 6.56 µM (inactive)
- GI50 (MOLT-4): 5.04 µM (inactive)
- GI50 (NCI-H23): 14.7 µM (inactive)
- GI50 (NCI-H460): 16 µM (inactive)
- GI50 (RXF 393): 12.7 µM (inactive)
- GI50 (SK-MEL-2): 17.4 µM (inactive)
- GI50 (SR): 10.7 µM (inactive)
- GI50 (SW-620): 18.4 µM (inactive)
- GI50 (UACC-62): 19.2 µM (inactive)

SMILES: O=c1c2ccccc2nc(-c2ccccc2)n1O
- GI50 (786-0): > 100 µM (inactive)
- GI50 (HCC 2998): > 100 µM (inactive)
- GI50 (HT-29): > 100 µM (inactive)
- GI50 (Hs-578T): > 100 µM (inactive)
- GI50 (IGROV-1): 56.8 µM (inactive)
- GI50 (K562): 30.9 µM (inactive)
- GI50 (LOX IMVI): 76.6 µM (inactive)
- GI50 (MDA-MB-231): > 100 µM (inactive)
- GI50 (MDA-MB-435): > 100 µM (inactive)
- GI50 (NCI-H226): 73.5 µM (inactive)
- GI50 (NCI-H23): 71 µM (inactive)
- GI50 (NCI-H460): 64.1 µM (inactive)
- GI50 (RXF 393): 31.3 µM (inactive)
- GI50 (SK-MEL-2): > 100 µM (inactive)
- GI50 (SR): 23.3 µM (inactive)
- GI50 (SW-620): > 100 µM (inactive)
- GI50 (UACC-62): > 100 µM (inactive)

SMILES: Cc1nc2ccc(C(F)(F)F)cc2nc1NCc1ccc(Cl)c(Cl)c1
- GI50 (786-0): 16.6 µM (inactive)
- GI50 (HCC 2998): 10.5 µM (inactive)
- GI50 (HT-29): 15 µM (inactive)
- GI50 (Hs-578T): 23.6 µM (inactive)
- GI50 (IGROV-1): 16.6 µM (inactive)
- GI50 (K562): 20.4 µM (inactive)
- GI50 (LOX IMVI): 15.3 µM (inactive)
- GI50 (MDA-MB-231): 15.8 µM (inactive)
- GI50 (MDA-MB-435): 17.4 µM (inactive)
- GI50 (MOLT-4): 15.6 µM (inactive)
- GI50 (NCI-H226): 18.1 µM (inactive)
- GI50 (NCI-H23): 16 µM (inactive)
- GI50 (NCI-H460): 32.3 µM (inactive)
- GI50 (RXF 393): 12.5 µM (inactive)
- GI50 (SR): 14.8 µM (inactive)
- GI50 (SW-620): 18.9 µM (inactive)
- GI50 (UACC-62): 3.28 µM (inactive)

SMILES: S=C(c1c[nH]c2ccccc12)N1CCN(c2ccccc2)CC1
- GI50 (786-0): 46.9 µM (inactive)
- GI50 (HT-29): 59.6 µM (inactive)
- GI50 (Hs-578T): 1.06 µM (active)
- GI50 (IGROV-1): 7.11 µM (inactive)
- GI50 (K562): > 100 µM (inactive)
- GI50 (LOX IMVI): > 100 µM (inactive)
- GI50 (MDA-MB-231): > 100 µM (inactive)
- GI50 (MDA-MB-435): > 100 µM (inactive)
- GI50 (MOLT-4): > 100 µM (inactive)
- GI50 (NCI-H226): 7.76 µM (inactive)
- GI50 (NCI-H23): > 100 µM (inactive)
- GI50 (NCI-H460): > 100 µM (inactive)
- GI50 (RXF 393): > 100 µM (inactive)
- GI50 (SK-MEL-2): > 100 µM (inactive)
- GI50 (SR): > 100 µM (inactive)
- GI50 (SW-620): > 100 µM (inactive)
- GI50 (UACC-62): > 100 µM (inactive)

SMILES: CC(NC(=N)N)C(=O)O (stereo unspecified)
- GI50 (786-0): > 100 µM (inactive)
- GI50 (HCC 2998): > 100 µM (inactive)
- GI50 (HT-29): > 100 µM (inactive)
- GI50 (Hs-578T): > 100 µM (inactive)
- GI50 (IGROV-1): > 100 µM (inactive)
- GI50 (K562): > 100 µM (inactive)
- GI50 (LOX IMVI): > 100 µM (inactive)
- GI50 (MDA-MB-231): > 100 µM (inactive)
- GI50 (MDA-MB-435): > 100 µM (inactive)
- GI50 (MOLT-4): > 100 µM (inactive)
- GI50 (NCI-H226): > 100 µM (inactive)
- GI50 (NCI-H23): > 100 µM (inactive)
- GI50 (RXF 393): > 100 µM (inactive)
- GI50 (SK-MEL-2): > 100 µM (inactive)
- GI50 (SR): > 100 µM (inactive)
- GI50 (SW-620): > 100 µM (inactive)
- GI50 (UACC-62): > 100 µM (inactive)
